# Assay results published in PMC1838525 (Protein science : a publication of the Protein Society, 2006).
# Target: T1, Vam7p PX domain (Saccharomyces cerevisiae, UniProt P32912)
# T1 sequence (P32912 2-122): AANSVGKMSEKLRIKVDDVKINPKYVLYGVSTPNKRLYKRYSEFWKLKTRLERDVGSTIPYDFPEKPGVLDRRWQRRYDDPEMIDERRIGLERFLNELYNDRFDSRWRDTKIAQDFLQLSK
# Assay: 1H, […] HSQC NMR titration
# Type: binding
compound,measurement,value
CCCC(=O)OC[C@H](COP(=O)(O)O[C@@H]1[C@H](O)[C@H](OP(=O)(O)O)[C@@H](O)[C@H](O)[C@H]1O)OC(=O)CCC [C4-PtdIns(3)P],Kd,299 ± 26 µM
